Assay results from EP4389749A1, “SUBSTITUTED 3,7-DIHYDRO-1H-PURINE-2,6-DIONES AND USE THEREOF” (invIOs GmbH, priority 2022, dated 2024).

Key:
[1] = tested on: CD4+ T-cells; test: Immunostimulation assay with anti-CD3/28 stimulated T-cells, CD69 expression by flow cytometry; format: cell-based, human; details: T-cell; purified human CD4+ and CD8+ T-cells, 1 µg/ml anti-CD3, 1 µg/ml anti-CD28, 16 hours, surface FACS; read-out: EC50 CD4+
Procedure, shortened: (§1)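 Human CD4+/CD8+ T-cells purified from buffy-coat PBMCs were stimulated with 1 µg/ml anti-CD3 and 1 µg/ml anti-CD28 plus compound (0.001–30 µM) for 16 h at 37 °C. CD69 measured by flow cytometry; DMSO set minimal, CD3/28 Dynabeads maximal activation; EC50 by variable-slope fit.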

[2] = tested on: CD8+ T-cells; test: as above; format: cell-based, human; details: T-cell; purified human CD4+ and CD8+ T-cells, 1 µg/ml anti-CD3, 1 µg/ml anti-CD28, 16 hours, surface FACS; read-out: EC50 CD8+
Procedure, shortened: as §1

SMILES | EC50 [1] | EC50 [2]
Cn1c(-c2ccc(Oc3ccc(OC(F)(F)F)cc3F)c(Cl)c2)nc2c1c(=O)[nH]c(=O)n2CC(O)C(F)(F)F (centres unmarked) [Compound 163, 8-(3-chloro-4-(2-fluoro-4-(trifluoromethoxy)phenoxy)phenyl)-7-methyl-3-(3,3,3-trifluoro-2-hydroxypropyl)-3,7-dihydro-1H-purine-2,6-dione] | 100 to 500 nM | 100 to 500 nM
Cn1c(-c2ccc(Oc3ccc(Cl)cc3)cc2)nc2c1c(=O)[nH]c(=O)n2CC(O)C(F)(F)F (centres unmarked) [Compound 164, 8-(4-(4-chlorophenoxy)phenyl)-7-methyl-3-(3,3,3-trifluoro-2-hydroxypropyl)-3,7-dihydro-1H-purine-2,6-dione] | 100 to 500 nM | 100 to 500 nM
Cn1c(-c2ccc(Oc3ccc(OC(F)(F)F)c(Cl)c3)c(F)c2)nc2c1c(=O)[nH]c(=O)n2CC(O)C(F)(F)F (centres unmarked) [Compound 166, 8-(4-(3-chloro-4-(trifluoromethoxy)phenoxy)-3-fluorophenyl)-7-methyl-3-(3,3,3-trifluoro-2-hydroxypropyl)-3,7-dihydro-1H-purine-2,6-dione] | 100 to 500 nM | 100 to 500 nM
Cn1c(-c2ccc(Oc3ccc(OC(F)(F)F)cc3)c(F)c2)nc2c1c(=O)[nH]c(=O)n2CC(O)C(F)(F)F (centres unmarked) [Compound 167, 8-(3-fluoro-4-(4-(trifluoromethoxy)phenoxy)phenyl)-7-methyl-3-(3,3,3-trifluoro-2-hydroxypropyl)-3,7-dihydro-1H-purine-2,6-dione] | 100 to 500 nM | 100 to 500 nM
CC(O)Cn1c(=O)[nH]c(=O)c2c1nc(-c1ccc(Oc3ccc(S(C)(=O)=O)cc3)cc1)n2C (centres unmarked) [Compound 176, 3-(2-hydroxypropyl)-7-methyl-8-(4-(4-(methylsulfonyl)phenoxy)phenyl)-3,7-dihydro-1H-purine-2,6-dione] | 1000 to 5000 nM | 500 to 1000 nM
COc1cccc(Oc2ccc(-c3nc4c(c(=O)[nH]c(=O)n4CC(C)O)n3C)cc2)c1 (centres unmarked) [Compound 182, 3-(2-hydroxypropyl)-8-(4-(3-methoxyphenoxy)phenyl)-7-methyl-3,7-dihydro-1H-purine-2,6-dione] | 1000 to 5000 nM | 1000 to 5000 nM
CC(O)Cn1c(=O)[nH]c(=O)c2c1nc(-c1ccc(Oc3ccc4ccccc4c3)cc1)n2C (centres unmarked) [Compound 186, 3-(2-hydroxypropyl)-7-methyl-8-(4-(naphthalen-2-yloxy)phenyl)-3,7-dihydro-1H-purine-2,6-dione] | 100 to 500 nM | 100 to 500 nM
CC(O)Cn1c(=O)[nH]c(=O)c2c1nc(-c1ccc(Oc3cccc(C#N)c3)cc1)n2C (centres unmarked) [Compound 187, 3-(4-(3-(2-hydroxypropyl)-7-methyl-2,6-dioxo-2,3,6,7-tetrahydro-1H-purin-8-yl)phenoxy)benzonitrile] | 1000 to 5000 nM | 1000 to 5000 nM
CC(O)Cn1c(=O)[nH]c(=O)c2c1nc(-c1ccc(Oc3ccccc3OC(F)(F)F)cc1)n2C (centres unmarked) [Compound 190, 3-(2-hydroxypropyl)-7-methyl-8-(4-(2-(trifluoromethoxy)phenoxy)phenyl)-3,7-dihydro-1H-purine-2,6-dione] | > 5000 nM | > 5000 nM
Cn1c(-c2ccc(OCc3ccccc3)c(OC(F)(F)F)c2)nc2c1c(=O)[nH]c(=O)n2CC(CO)C(F)F (centres unmarked) [Compound 198, 8-(4-(benzyloxy)-3-(trifluoromethoxy)phenyl)-3-(3,3-difluoro-2-(hydroxymethyl)propyl)-7-methyl-3,7-dihydro-1H-purine-2,6-dione] | < 100 nM | 100 to 500 nM
Cn1c(-c2ccc(OCc3ccccc3)c(OC(F)(F)F)c2)nc2c1c(=O)[nH]c(=O)n2CC(O)C(F)F (centres unmarked) [Compound 199, 8-(4-(benzyloxy)-3-(trifluoromethoxy)phenyl)-3-(3,3-difluoro-2-hydroxypropyl)-7-methyl-3,7-dihydro-1H-purine-2,6-dione] | < 100 nM | < 100 nM
CC(O)Cn1c(=O)[nH]c(=O)c2c1nc(-c1ccc(OCCc3ccccc3)c(F)c1)n2C (centres unmarked) [Compound 200, 8-(3-fluoro-4-phenethoxyphenyl)-3-(2-hydroxypropyl)-7-methyl-3,7-dihydro-1H-purine-2,6-dione] | 500 to 1000 nM | 100 to 500 nM
CC(O)Cn1c(=O)[nH]c(=O)c2c1nc(-c1ccc(OCCCc3ccccc3)c(F)c1)n2C (centres unmarked) [Compound 201, 8-(3-fluoro-4-(3-phenylpropoxy)phenyl)-3-(2-hydroxypropyl)-7-methyl-3,7-dihydro-1H-purine-2,6-dione] | 100 to 500 nM | 100 to 500 nM

Next, values leading:

EC50 [1] | EC50 [2] | SMILES
1000 to 5000 nM | 1000 to 5000 nM | Cn1c(-c2ccc(Oc3ccc(OC(F)F)cc3)cc2)nc2c1c(=O)[nH]c(=O)n2CC(O)C(F)(F)F (centres unmarked) [Compound 165, 8-(4-(4-(difluoromethoxy)phenoxy)phenyl)-7-methyl-3-(3,3,3-trifluoro-2-hydroxypropyl)-3,7-dihydro-1H-purine-2,6-dione]
500 to 1000 nM | 500 to 1000 nM | CC(O)Cn1c(=O)[nH]c(=O)c2c1nc(-c1ccc(Oc3ccc(OC(F)F)cc3)c(Cl)c1)n2C (centres unmarked) [Compound 178, 8-(3-chloro-4-(4-(difluoromethoxy)phenoxy)phenyl)-3-(2-hydroxypropyl)-7-methyl-3,7-dihydro-1H-purine-2,6-dione]
> 5000 nM | 500 to 1000 nM | CC(O)Cn1c(=O)[nH]c(=O)c2c1nc(-c1ccc(Oc3ccc(OC(F)(F)F)cc3)c(Cl)c1)n2C (centres unmarked) [Compound 179, 8-(3-chloro-4-(4-(trifluoromethoxy)phenoxy)phenyl)-3-(2-hydroxypropyl)-7-methyl-3,7-dihydro-1H-purine-2,6-dione]
1000 to 5000 nM | 500 to 1000 nM | CC(O)Cn1c(=O)[nH]c(=O)c2c1nc(-c1ccc(Oc3ccc(Cl)cc3)c(Cl)c1)n2C (centres unmarked) [Compound 180, 8-(3-chloro-4-(4-chlorophenoxy)phenyl)-3-(2-hydroxypropyl)-7-methyl-3,7-dihydro-1H-purine-2,6-dione]
1000 to 5000 nM | 1000 to 5000 nM | CC(O)Cn1c(=O)[nH]c(=O)c2c1nc(-c1ccc(Oc3cccc(Cl)c3)cc1)n2C (centres unmarked) [Compound 184, 8-(4-(3-chlorophenoxy)phenyl)-3-(2-hydroxypropyl)-7-methyl-3,7-dihydro-1H-purine-2,6-dione]
100 to 500 nM | 1000 to 5000 nM | CC(O)Cn1c(=O)[nH]c(=O)c2c1nc(-c1ccc(Oc3ccc(OC(F)(F)F)cc3)c(F)c1)n2C (centres unmarked) [Compound 188, 8-(3-fluoro-4-(4-(trifluoromethoxy)phenoxy)phenyl)-3-(2-hydroxypropyl)-7-methyl-3,7-dihydro-1H-purine-2,6-dione]
500 to 1000 nM | 500 to 1000 nM | CC(O)Cn1c(=O)[nH]c(=O)c2c1nc(-c1ccc(Oc3cccc(OC(F)(F)F)c3)cc1)n2C (centres unmarked) [Compound 191, 3-(2-hydroxypropyl)-7-methyl-8-(4-(3-(trifluoromethoxy)phenoxy)phenyl)-3,7-dihydro-1H-purine-2,6-dione]
1000 to 5000 nM | 1000 to 5000 nM | CC(O)Cn1c(=O)[nH]c(=O)c2c1nc(-c1ccc(Oc3ccc(OC(F)(F)F)cc3Cl)cc1)n2C (centres unmarked) [Compound 192, 8-(4-(2-chloro-4-(trifluoromethoxy)phenoxy)phenyl)-3-(2-hydroxypropyl)-7-methyl-3,7-dihydro-1H-purine-2,6-dione]
1000 to 5000 nM | 1000 to 5000 nM | CC(O)Cn1c(=O)[nH]c(=O)c2c1nc(-c1ccc(Oc3ccc(OC(F)(F)F)cc3F)cc1)n2C (centres unmarked) [Compound 193, 8-(4-(2-fluoro-4-(trifluoromethoxy)phenoxy)phenyl)-3-(2-hydroxypropyl)-7-methyl-3,7-dihydro-1H-purine-2,6-dione]
100 to 500 nM | 500 to 1000 nM | CC(O)Cn1c(=O)[nH]c(=O)c2c1nc(-c1ccc(Oc3ccc(OC(F)(F)F)c(Cl)c3)cc1)n2C (centres unmarked) [Compound 194, 8-(4-(3-chloro-4-(trifluoromethoxy)phenoxy)phenyl)-3-(2-hydroxypropyl)-7-methyl-3,7-dihydro-1H-purine-2,6-dione]
1000 to 5000 nM | 1000 to 5000 nM | CC(O)Cn1c(=O)[nH]c(=O)c2c1nc(-c1ccc(Oc3ccc(F)c(C(F)(F)F)c3)cc1)n2C (centres unmarked) [Compound 195, 8-(4-(4-fluoro-3-(trifluoromethyl)phenoxy)phenyl)-3-(2-hydroxypropyl)-7-methyl-3,7-dihydro-1H-purine-2,6-dione]
1000 to 5000 nM | 1000 to 5000 nM | COc1cc(-c2nc3c(c(=O)[nH]c(=O)n3CC(C)O)n2C)ccc1Oc1ccc(OC(F)(F)F)cc1 (centres unmarked) [Compound 196, 3-(2-hydroxypropyl)-8-(3-methoxy-4-(4-(trifluoromethoxy)phenoxy)phenyl)-7-methyl-3,7-dihydro-1H-purine-2,6-dione]
